Data as given in EP0043274A2, “Antithrombotic treatment” (priority 1980, dated 1982).
Counter-ions that a name gives are not always drawn. Like-named read-outs stand apart in the source and are kept apart here.

Key:
human plasma [1] = type: biochemical; conditions: for PTT (effect in words): in vitro
human plasma [2] = type: biochemical; conditions: for PT (effect in words): in vitro
[3] = amine hydrochlorides, control plasma 31.2
[4] = amine hydrochlorides, control plasma 31.3
[5] = amine hydrochlorides, control plasma 12.5
[6] = amine hydrochlorides, control plasma 13.0
[7] = amine bisulfites, control plasma 37.5 / 38.2
[8] = amine bisulfites, control plasma 37.8 / 39.2
[9] = amine bisulfites, control plasma 12.8 / 13.1
[10] = amine bisulfites, control plasma 13.1 / 13.0
[11] = amine hydrochlorides, control plasma 13.5
[12] = coded agents 0.5mg/ml, […], control 43.38
[13] = coded agents 0.5mg/ml, […], control 12.92

2-octanome [Example 2-octanome, reference compound]
PTT (effect in words) (human plasma [1]; 0.5 mg/ml): minimal effect
PT (effect in words) (human plasma [2]; 0.5 mg/ml): minimal effect

CN1CCOCC1 [4-METHYL MORPHOLINE]
PTT REPLICATIONS 1 (human plasma [1]): 63.5
PTT REPLICATIONS 2 (human plasma [1]): 61.3
PTT REPLICATIONS 3 (human plasma [1]): 60.6
PT REPLICATIONS 1 (human plasma [2]): 21.3
PT REPLICATIONS 2 (human plasma [2]): 21.5
PT REPLICATIONS 3 (human plasma [2]): 20.4

C=CCN [ALLYL AMINE HYDROCHLORIDE, reference compound]
PTT 1 (human plasma [1]): 31.6
PTT 3 (human plasma [1]; [3]): 32.4
PTT 2 (human plasma [1]; [4]): 30.5
PT 3 (human plasma [2]): 14.4
PT 2 (human plasma [2]; [5]): 13.2
PT 1 (human plasma [2]; [6]): 13.2

C=CCN [ALLYL AMINE]
PTT REPLICATIONS 2 (human plasma [1]): 46.9
PTT REPLICATIONS 1 (human plasma [1]; [7]): 47.1
PTT REPLICATIONS 3 (human plasma [1]; [8]): 44.9
PT REPLICATIONS 1 (human plasma [2]; [9]): 16.1
PT REPLICATIONS 2 (human plasma [2]; [9]): 16.0
PT REPLICATIONS 3 (human plasma [2]; [10]): 15.6

Nc1ccccc1 [ANILINE]
PTT REPLICATIONS 2 (human plasma [1]): 44.9
PTT REPLICATIONS 1 (human plasma [1]; [7]): 45.4
PTT REPLICATIONS 3 (human plasma [1]; [8]): 42.9
PT REPLICATIONS 1 (human plasma [2]; [9]): 16.0
PT REPLICATIONS 2 (human plasma [2]; [9]): 16.9
PT REPLICATIONS 3 (human plasma [2]; [10]): 16.0

Cl.NC1CCCCC1 [CYCLOHEXYL AMINE HYDROCHLORIDE, reference compound]
PTT 1 (human plasma [1]): 32.5
PTT 3 (human plasma [1]; [3]): 34.3
PTT 2 (human plasma [1]; [4]): 32.7
PT 2 (human plasma [2]; [5]): 13.6
PT 1 (human plasma [2]; [6]): 13.8
PT 3 (human plasma [2]; [11]): 13.5

C=CCNCC=C.Cl [DIALLYL AMINE HYDROCHLORIDE, reference compound]
PTT 1 (human plasma [1]): 30.5
PTT 3 (human plasma [1]; [3]): 30.4
PTT 2 (human plasma [1]; [4]): 30.7
PT 2 (human plasma [2]; [5]): 13.1
PT 1 (human plasma [2]; [6]): 12.8
PT 3 (human plasma [2]; [11]): 13.5

C=CCNCC=C [DIALLYL AMINE]
PTT REPLICATIONS 2 (human plasma [1]): 39.6
PTT REPLICATIONS 1 (human plasma [1]; [7]): 38.8
PTT REPLICATIONS 3 (human plasma [1]; [8]): 39.1
PTT (effect in words) (human plasma [1]; concentration not given): low activity
PT REPLICATIONS 1 (human plasma [2]; [9]): 13.4
PT REPLICATIONS 2 (human plasma [2]; [9]): 13.7
PT REPLICATIONS 3 (human plasma [2]; [10]): 13.8
PT (effect in words) (human plasma [2]; concentration not given): low activity

NCCO [ETHANOL AMINE]
PTT REPLICATIONS 2 (human plasma [1]): 66.1
PTT REPLICATIONS 1 (human plasma [1]; [7]): 65.3
PTT REPLICATIONS 3 (human plasma [1]; [8]): 61.1
PT REPLICATIONS 1 (human plasma [2]; [9]): 19.3
PT REPLICATIONS 2 (human plasma [2]; [9]): 20.5
PT REPLICATIONS 3 (human plasma [2]; [10]): 18.4

O=C(O)CC(S)C(=O)O (centres unmarked) [Example A2, Mercaptosuccinic acid, reference compound]
PTT (human plasma [1]; 0.5 mg/ml, two different days, control 42.6 / 42.10): 52.6 s
PTT (human plasma [1]; [12]): 48.70 s
PT (human plasma [2]): 14.7 s
PT (human plasma [2]; [13]): 14.60 s

O=C(O)/C(O)=C(/O)C(=O)O [Example A3, Dihydroxymaleic acid 2 H2O, reference compound]
PTT (human plasma [1]; [12]): 53.00 s
PT (human plasma [2]; [13]): 14.95 s

C1COCCN1 [MORPHOLINE]
PTT REPLICATIONS 1 (human plasma [1]): 66.8
PTT REPLICATIONS 2 (human plasma [1]): 61.8
PTT REPLICATIONS 3 (human plasma [1]): 51.7
PT REPLICATIONS 1 (human plasma [2]): 19.3
PT REPLICATIONS 2 (human plasma [2]): 21.0
PT REPLICATIONS 3 (human plasma [2]): 17.5

CN(C)C1CCCCC1 [N,N-DIMETHYL CYCLOHEXYL AMINE]
PTT REPLICATIONS 2 (human plasma [1]): 62.1
PTT REPLICATIONS 1 (human plasma [1]; [7]): 60.1
PTT REPLICATIONS 3 (human plasma [1]; [8]): 58.9
PT REPLICATIONS 1 (human plasma [2]; [9]): 18.9
PT REPLICATIONS 2 (human plasma [2]; [9]): 20.4
PT REPLICATIONS 3 (human plasma [2]; [10]): 19.8

CNC1CCCCC1 [N-METHYL CYCLOHEXYL AMINE]
PTT REPLICATIONS 2 (human plasma [1]): 61.8
PTT REPLICATIONS 1 (human plasma [1]; [7]): 60.6
PTT REPLICATIONS 3 (human plasma [1]; [8]): 61.6
PT REPLICATIONS 1 (human plasma [2]; [9]): 20.5
PT REPLICATIONS 2 (human plasma [2]; [9]): 20.3
PT REPLICATIONS 3 (human plasma [2]; [10]): 20.4

Cl.c1ccncc1 [PYRIDINE HYDROCHLORIDE (CRYSTALS), PYRIDINE HYDROCHLORIDE, reference compound]
PTT 1 (human plasma [1]; HYDROCHLORIDE): 31.3
PTT 2 (human plasma [1]; HYDROCHLORIDE): 31.1
PTT 3 (human plasma [1]; HYDROCHLORIDE): 32.2
PT 1 (human plasma [2]; HYDROCHLORIDE): 12.9
PT 2 (human plasma [2]; HYDROCHLORIDE): 12.8
PT 3 (human plasma [2]; HYDROCHLORIDE): 14.0

Cl.c1ccncc1 [PYRIDINE HYDROCHLORIDE (POWDER), PYRIDINE HYDROCHLORIDE, reference compound]
PTT 1 (human plasma [1]; HYDROCHLORIDE): 30.5
PTT 2 (human plasma [1]; HYDROCHLORIDE): 30.8
PTT 3 (human plasma [1]; HYDROCHLORIDE): 31.1
PT 1 (human plasma [2]; HYDROCHLORIDE): 12.6
PT 2 (human plasma [2]; HYDROCHLORIDE): 12.5
PT 3 (human plasma [2]; HYDROCHLORIDE): 13.8

Na-phosphite [reference compound]
PT (human plasma [2]; 0.5 mg/ml, two different days, control 13.40): 12.9 s
